According to patent publication US20250002487A1, “HETEROCYCLIC COMPOUNDS AND USES THEREOF” (Ventus Therapeutics U.S., Inc., priority 2021, published 2025):

Biological target: human-cGAS (h-cGAS) (Homo sapiens, UniProt Q8N884)
Test: hcGAS Kinase-Glo Assay
Type: biochemical
Conditions: 40 nM h-cGAS, 100 μM ATP, 100 μM GTP, 25 nM dsDNA, 3 h incubation, read-out: hcGAS potency IC50
Summary of the method: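 IC50 values come from a luminescence-based Kinase-Glo measurement on human cGAS. Conditions follow the Lama et al. 2019 method with minor modifications.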

human-cGAS (h-cGAS), sequence (Q8N884 whole entry): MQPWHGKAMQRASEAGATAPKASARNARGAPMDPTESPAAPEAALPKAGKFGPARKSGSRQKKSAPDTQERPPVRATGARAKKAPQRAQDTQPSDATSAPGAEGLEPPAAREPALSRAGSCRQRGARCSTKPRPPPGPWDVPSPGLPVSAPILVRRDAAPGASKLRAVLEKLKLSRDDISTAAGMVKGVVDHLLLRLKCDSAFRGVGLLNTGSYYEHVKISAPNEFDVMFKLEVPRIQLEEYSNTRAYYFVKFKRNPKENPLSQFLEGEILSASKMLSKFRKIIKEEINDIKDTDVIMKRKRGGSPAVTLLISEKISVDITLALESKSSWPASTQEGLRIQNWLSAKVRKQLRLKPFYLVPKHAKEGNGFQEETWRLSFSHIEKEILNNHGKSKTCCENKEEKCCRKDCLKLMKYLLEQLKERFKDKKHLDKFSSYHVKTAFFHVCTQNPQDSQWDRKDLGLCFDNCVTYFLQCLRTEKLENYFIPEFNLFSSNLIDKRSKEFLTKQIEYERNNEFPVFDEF

Compound | IC50
CSc1nnc(NC(=O)c2nnc(N3CCCC(C)(C)C3)o2)s1 [Compound 119, 5-(3,3-dimethylpiperidin-1-yl)-N-(5-(methylthio)-1,3,4-thiadiazol-2-yl)-1,3,4-oxadiazole-2-carboxamide] | 500 to 1000 nM
CSc1nnc(NC(=O)c2cc3c(C)cc(F)cc3[nH]2)s1 [Compound 78, 6-fluoro-4-methyl-N-(5-(methylthio)-1,3,4-thiadiazol-2-yl)-1H-indole-2-carboxamide] | 500 to 1000 nM
CSc1nnc(NC(=O)c2onc3ccc(CO)cc23)s1 [Compound 191, 5-(hydroxymethyl)-N-(5-(methylthio)-1,3,4-thiadiazol-2-yl)benzo[c]isoxazole-3-carboxamide] | ≥ 1000 nM
CSc1nnc(NC(=O)c2onc3cc(F)ccc23)s1 [Compound 222, 6-fluoro-N-[5-(methylsulfanyl)-1,3,4-thiadiazol-2-yl]-2,1-benzoxazole-3-carboxamide] | 500 to 1000 nM
CSc1nnc(NC(=O)c2cc(-c3nccs3)no2)s1 [Compound 142, N-(5-(methylthio)-1,3,4-thiadiazol-2-yl)-3-(thiazol-2-yl)isoxazole-5-carboxamide] | 500 to 1000 nM
CSc1nnc(NC(=O)c2nnc(N3CCC(C)(C)CC3)o2)s1 [Compound 120, 5-(4,4-dimethylpiperidin-1-yl)-N-(5-(methylthio)-1,3,4-thiadiazol-2-yl)-1,3,4-oxadiazole-2-carboxamide] | 500 to 1000 nM
COc1ccc2c(C(=O)Nc3nnc(SC)s3)onc2c1 [Compound 231, 6-methoxy-N-[5-(methylsulfanyl)-1,3,4-thiadiazol-2-yl]-2,1-benzoxazole-3-carboxamide] | 100 to 500 nM
CSc1nnc(NC(=O)c2cc(-c3cncs3)no2)s1 [Compound 141, N-(5-(methylthio)-1,3,4-thiadiazol-2-yl)-3-(thiazol-5-yl)isoxazole-5-carboxamide] | ≥ 1000 nM
CSc1nnc(NC(=O)c2onc3c2ccc2cnccc23)s1 [Compound 273, N-(5-(methylthio)-1,3,4-thiadiazol-2-yl)isoxazolo[3,4-f]isoquinoline-3-carboxamide] | ≥ 1000 nM
O=C(Nc1nncs1)c1onc2c1ccc1cccnc12 [Compound 13, N-(1,3,4-thiadiazol-2-yl)isoxazolo[4,3-h]quinoline-3-carboxamide] | 500 to 1000 nM
CSc1nnc(NC(=O)c2nc(-c3cccs3)oc2C)s1 [Compound 77, 5-methyl-N-(5-(methylthio)-1,3,4-thiadiazol-2-yl)-2-(thiophen-2-yl)oxazole-4-carboxamide] | ≥ 1000 nM
O=C(Nc1nnc(-c2ccccc2Cl)s1)c1ccnc(=O)[nH]1 [Compound 62, N-(5-(2-chlorophenyl)-1,3,4-thiadiazol-2-yl)-2-oxo-2,3-dihydropyrimidine-4-carboxamide] | ≥ 1000 nM
COc1cccc2c(C(=O)Nc3nnc(SC)s3)onc12 [Compound 230, 7-methoxy-N-[5-(methylsulfanyl)-1,3,4-thiadiazol-2-yl]-2,1-benzoxazole-3-carboxamide] | 100 to 500 nM
CCSc1nnc(NC(=O)c2onc3ccccc23)s1 [Compound 70, N-(5-(ethylthio)-1,3,4-thiadiazol-2-yl)benzo[c]isoxazole-3-carboxamide] | ≥ 1000 nM
CSc1nnc(NC(=O)c2nc(-c3cnccn3)no2)s1 [Compound 71, N-(5-(methylthio)-1,3,4-thiadiazol-2-yl)-3-(pyrazin-2-yl)-1,2,4-oxadiazole-5-carboxamide] | 500 to 1000 nM
CSc1nnc(NC(=O)c2noc(-c3ccccn3)n2)s1 [Compound 104, N-[5-(methylsulfanyl)-1,3,4-thiadiazol-2-yl]-5-(132yridine-2-yl)-1,2,4-oxadiazole-3-carboxamide] | 500 to 1000 nM
O=C(Nc1nnc(-c2ccccc2Cl)s1)c1cc(C2CC2)no1 [Compound 39, N-(5-(2-chlorophenyl)-1,3,4-thiadiazol-2-yl)-3-cyclopropylisoxazole-5-carboxamide] | 100 to 500 nM
O=C(Nc1nnc(-c2ccccc2Cl)s1)c1ccno1 [Compound 6, N-(5-(2-chlorophenyl)-1,3,4-thiadiazol-2-yl)isoxazole-5-carboxamide] | 100 to 500 nM
COc1cc(C(=O)Nc2nnc(-c3ccccc3Cl)s2)on1 [Compound 31, N-(5-(2-chlorophenyl)-1,3,4-thiadiazol-2-yl)-3-methoxyisoxazole-5-carboxamide] | 100 to 500 nM

Other lines, results leading:

IC50 | Compound
≥ 1000 nM | CSc1nnc(NC(=O)c2onc3ccc(C(O)c4ccccc4)cc23)s1 (centres unmarked) [Compound 166, 5-(hydroxy(phenyl)methyl)-N-(5-(methylthio)-1,3,4-thiadiazol-2-yl)benzo[c]isoxazole-3-carboxamide]
500 to 1000 nM | CSc1nnc(NC(=O)c2nc(Nc3ccccc3)no2)s1 [Compound 265, N-(5-(methylthio)-1,3,4-thiadiazol-2-yl)-3-(phenylamino)-1,2,4-oxadiazole-5-carboxamide]
500 to 1000 nM | CSc1nnc(NC(=O)c2cc(-c3cccc(Cl)c3)no2)s1 [Compound 209, 3-(3-chlorophenyl)-N-[5-(methylsulfanyl)-1,3,4-thiadiazol-2-yl]-1,2-oxazole-5-carboxamide]
500 to 1000 nM | CSc1nnc(NC(=O)c2cc(-c3ccccc3-c3ccccc3)cc(=O)o2)s1 [Compound 182, 4-([1,1′-biphenyl]-2-yl)-N-(5-(methylthio)-1,3,4-thiadiazol-2-yl)-2-oxo-2H-pyran-6-carboxamide]
100 to 500 nM | Cn1cc(-c2cc(C(=O)Nc3nnc(-c4ccccc4Cl)s3)on2)cn1 [Compound 52, N-(5-(2-chlorophenyl)-1,3,4-thiadiazol-2-yl)-3-(1-methyl-1H-pyrazol-4-yl)isoxazole-5-carboxamide]
100 to 500 nM | O=C(Nc1nnc(-c2ccccc2Cl)s1)c1cc(-c2ncc3ccccc3n2)no1 [Compound 155, N-(5-(2-Chlorophenyl)-1,3,4-thiadiazol-2-yl)-3-(quinazolin-2-yl)isoxazole-5-carboxamide]
500 to 1000 nM | CSc1nnc(NC(=O)c2onc3ccc(Cc4ccccc4)cc23)s1 [Compound 159, 5-Benzyl-N-(5-(methylthio)-1,3,4-thiadiazol-2-yl)benzo[c]isoxazole-3-carboxamide]
500 to 1000 nM | CSc1nnc(NC(=O)c2onc3ccccc23)s1 [Compound 79, N-(5-(methylthio)-1,3,4-thiadiazol-2-yl)benzo[c]isoxazole-3-carboxamide]
< 100 nM | O=C(Nc1nnc(-c2ccccc2Cl)s1)c1cc(Nc2ccccc2)cc(=O)o1 [Compound 206, N-[5-(2-chlorophenyl)-1,3,4-thiadiazol-2-yl]-6-oxo-4-(phenylamino) pyran-2-carboxamide]
≥ 1000 nM | CSc1nnc(NC(=O)c2cn(Cc3ccccc3)nn2)s1 [Compound 42, 1-benzyl-N-(5-(methylthio)-1,3,4-thiadiazol-2-yl)-1H-1,2,3-triazole-4-carboxamide]
